18 molecules from EP1120414A1, “DISUBSTITUTED MALEIMIDE COMPOUNDS AND MEDICINAL UTILIZATION THEREOF” (Japan Tobacco Inc., priority 1998, dated 2000) can be followed below.

One assay has as its target T1, PKC β II (Homo sapiens, UniProt P05771).
T1 construct: purchased CALBIOCHEM
Kind of assay: PKC enzyme assay (BIOTRAK Protein kinase C enzyme assay system, 32P-ATP phosphorylation of peptide […]). To be noted: for Ratio α/β: IC50 PKC α / IC50 PKC β II. It counts as biochemical.

A further assay addresses T2, PKC α (Homo sapiens, UniProt P17252).
T2 construct: purchased CALBIOCHEM
Described as above. It counts as biochemical. The method in brief:
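Recombinant human PKC (400 ng/ml solution) phosphorylated the supplied peptide with [γ-32P]ATP in calcium, phosphatidylserine/PMA, DTT and Mg-ATP buffer, 15 min at 37°C. Compounds were tested at 1 nM-10 µM final. Phosphocellulose-bound radioactivity relative to DMSO gave inhibition, from which IC50 was calculated.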

Where [1] appears, read: read-out: Inhibition of PKC activity IC50 PKC β II, Protein Kinase C, Human Recombinant, test substance 1 nM-10 µM, 37°C, 15 minutes.
[2] abbreviates: read-out: Inhibition of PKC activity IC50 PKC α, Protein Kinase C, Human Recombinant, test substance 1 nM-10 µM, 37°C, 15 minutes.
The mark [3] stands for this setting: Protein Kinase C, Human Recombinant, test substance 1 nM-10 µM, 37°C, 15 minutes, read-out: Inhibition of PKC activity IC50 PKC β II.

Like-named read-outs stand apart in the source and are kept apart here.

T1 sequence (P05771 other isoform, or with tags, fused parts or gaps): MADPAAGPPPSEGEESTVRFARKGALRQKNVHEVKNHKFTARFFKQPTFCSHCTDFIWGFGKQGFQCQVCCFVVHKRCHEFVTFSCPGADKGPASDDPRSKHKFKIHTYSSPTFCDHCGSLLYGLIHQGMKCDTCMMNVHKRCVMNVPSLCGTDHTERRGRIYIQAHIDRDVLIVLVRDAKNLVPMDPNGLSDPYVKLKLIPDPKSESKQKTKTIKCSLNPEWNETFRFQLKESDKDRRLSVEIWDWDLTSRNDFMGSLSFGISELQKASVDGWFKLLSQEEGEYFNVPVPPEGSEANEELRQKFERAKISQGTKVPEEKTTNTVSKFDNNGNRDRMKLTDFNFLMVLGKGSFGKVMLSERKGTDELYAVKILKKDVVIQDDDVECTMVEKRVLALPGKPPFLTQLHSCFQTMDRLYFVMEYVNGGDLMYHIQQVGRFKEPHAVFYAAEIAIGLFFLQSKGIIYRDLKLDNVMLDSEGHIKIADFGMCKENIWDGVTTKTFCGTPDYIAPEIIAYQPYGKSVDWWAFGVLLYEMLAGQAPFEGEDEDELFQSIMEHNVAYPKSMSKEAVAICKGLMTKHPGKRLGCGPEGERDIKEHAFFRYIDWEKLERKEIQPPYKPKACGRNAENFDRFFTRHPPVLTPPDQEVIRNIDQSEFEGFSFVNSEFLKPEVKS

In the case of `CCN(CC)C[C@H]1CCc2c(C3=C(Nc4ccccc4)C(=O)NC3=O)c3ccccc3n2C1` [Example 4-54], the “Ratio α/β” value at PKC β II turned out to be 57. The values for the IC50 at PKC β II (setting [1]) and on PKC α (setting [2]) were 10 nM and 569 nM, respectively.

As to `CN(C)C[C@H]1CCc2c(C3=C(Nc4ccccc4)C(=O)NC3=O)c3ccccc3n2C1` [Example 4-55], the “Ratio α/β” value on PKC β II came out at 63. The IC50 at PKC β II (setting [3]) worked out at 4 nM; at PKC α (setting [2]), 252 nM.

Regarding `COC[C@H]1Cc2c(C3=C(Nc4ccccc4)C(=O)NC3=O)c3ccccc3n2C1` [Example 4-56], the IC50 on PKC β II is 40 nM; at PKC α, 5220 nM. The “Ratio α/β” value at PKC β II was 131.

As to `COC[C@H]1Cc2c(C3=C(Nc4ccc(F)cc4)C(=O)NC3=O)c3ccccc3n2C1` [Example 4-57], at PKC β II, the “Ratio α/β” value is given as 77. Besides, the IC50 at PKC β II (setting [1]) was determined as 84 nM; at PKC α (setting [2]) it was 6460 nM.

With `O=C1NC(=O)C(c2c3n(c4ccccc24)C[C@H](CO)C3)=C1Nc1ccccc1` [Example 4-58], the “Ratio α/β” value on PKC β II came out at 73. Moreover, the IC50 at PKC β II (setting [3]) came out at 14 nM; at PKC α (setting [2]) it was 1020 nM.

For `O=C1NC(=O)C(c2c3n(c4ccccc24)C[C@H](CN2CCOCC2)C3)=C1Nc1ccccc1` [Example 4-59], on PKC β II, the “Ratio α/β” value was found to be 109. In addition, the IC50 on PKC β II (setting [1]) was found to be 46 nM; on PKC α (setting [2]) it was 4990 nM.

Regarding `O=C1NC(=O)C(c2c3n(c4ccccc24)C[C@@H](CO)C3)=C1Nc1ccccc1` [Example 4-60], the “Ratio α/β” value at PKC β II turned out to be 115. Besides, the values for the IC50 at PKC β II (setting [3]) and on PKC α (setting [2]) were 4 nM and 458 nM, respectively.

Take `CCN(C)C[C@H]1Cc2c(C3=C(Nc4ccccc4)C(=O)NC3=O)c3ccccc3n2C1` [Example 4-61]: at PKC β II, the “Ratio α/β” value stood at 96. Moreover, the results for the IC50 at PKC β II (setting [3]) and on PKC α (setting [2]) were 5 nM and 481 nM, respectively.

As for `COc1ccc(NC2=C(c3c4n(c5ccccc35)C[C@@H](CO)C4)C(=O)NC2=O)cc1` [Example 4-62], on PKC β II, the “Ratio α/β” value was 50. In addition, the IC50 at PKC β II (setting [1]) was 16 nM; at PKC α (setting [2]) it was 794 nM.

Take `CCN(C)C[C@H]1Cc2c(C3=C(Nc4ccc(OC)cc4)C(=O)NC3=O)c3ccccc3n2C1` [Example 4-63]: the “Ratio α/β” value at PKC β II came out at 69. The IC50 at PKC β II (setting [1]) worked out at 16 nM; on PKC α (setting [2]) it was 1100 nM.

Turning to `CN(C)C[C@H]1Cc2c(C3=C(Nc4ccccc4)C(=O)NC3=O)c3ccccc3n2C1` [Example 4-64], the “Ratio α/β” value at PKC β II was 37. Further, the IC50 turned out to be 4 nM on PKC β II (setting [3]) and 148 nM at PKC α (setting [2]).

As to `CCN(CC)C[C@H]1Cc2c(C3=C(Nc4ccccc4)C(=O)NC3=O)c3ccccc3n2C1` [Example 4-65], the “Ratio α/β” value on PKC β II came to 61. Further, the figures for the IC50 on PKC β II (setting [3]) and at PKC α (setting [2]) were 32 nM and 1950 nM, respectively.

With `CCN(C)C[C@H]1Cc2c(C3=C(Nc4ccc(F)cc4)C(=O)NC3=O)c3ccccc3n2C1` [Example 4-66], the “Ratio α/β” value on PKC β II stood at 53. Moreover, the 50% inhibitory concentration (IC50) was found to be 12 nM at PKC β II (setting [1]) and 632 nM at PKC α (setting [2]).

For the molecule `O=C1NC(=O)C(c2c3n(c4ccccc24)C[C@@H](CN2CCCC2)C3)=C1Nc1ccccc1` [Example 4-67], the “Ratio α/β” value at PKC β II was 68. In addition, the IC50 was 8 nM on PKC β II (setting [3]) and 542 nM at PKC α (setting [2]).

On to `O=C1NC(=O)C(c2c3n(c4ccccc24)C[C@@H](CO)C3)=C1Nc1ccc(F)cc1` [Example 4-68], for which, on PKC β II, the “Ratio α/β” value worked out at 85. Moreover, the IC50 at PKC β II (setting [1]) is 4 nM; at PKC α (setting [2]), 341 nM.

Take `CN(C)C[C@H]1Cc2c(C3=C(Nc4ccc(F)cc4)C(=O)NC3=O)c3ccccc3n2C1` [Example 4-69]: the “Ratio α/β” value on PKC β II is 76. For the same molecule, the IC50 on PKC β II (setting [1]) came to 6 nM; on PKC α (setting [2]) it was 455 nM.

For the molecule `CNC[C@H]1Cc2c(C3=C(Nc4ccccc4)C(=O)NC3=O)c3ccccc3n2C1` [Example 4-70], at PKC β II, the “Ratio α/β” value came out at 159. Also, the values for the IC50 at PKC β II (setting [1]) and on PKC α (setting [2]) were 1 nM and 159 nM, respectively.

For `O=C1NC(=O)C(c2c3n(c4ccccc24)C[C@@H](CN2CCOCC2)C3)=C1Nc1ccccc1` [Example 4-71], the “Ratio α/β” value on PKC β II worked out at 108. Also, the IC50 at PKC β II (setting [1]) turned out to be 41 nM; at PKC α (setting [2]), 4450 nM.
